Reference: patent US8658158B2, “Sensitization of chemotherapeutic agent resistant neoplastic cells with a virus” (Oncolytics Biotech Inc., priority 2001, dated 2014)
“Also recorded” adds a separate entry of the source.

System: ras-transformed C3H cells (C3H10T1/2 derived tumors)
Assay: Tumor growth in C3H mice bearing subcutaneous ras-transformed C3H cell tumors, treated with reovirus and/or cisplatin
Assay type: in vivo
Details: syngeneic tumors measured daily from Day 0, cisplatin 2.5 mg/kg tail vein Days 10, 16, 22, reovirus 5×10^8 PFUs i.v. Days 0, 6, 12, 18
From the text: C3H mice (Charles River) were implanted subcutaneously with 1.0×10^6 […] ras-transformed C3H cells (a gift of D. Edwards, University of Calgary) and allowed to develop tumors. The Dearing strain of reovirus serotype 3 used in these studies was propagated in suspension cultures of L cells and purified according to Smith (Smith et al., 1969) with the exception that β-mercaptoethanol (β-ME) was omitted from the extraction buffer. The particle/PFU ratio for purified reovirus was typically 100/1.
The tumor bearing mice were treated with 4 different regimes as described below:
For animals which received reovirus (Series 3-4), 5×10^8 PFUs of reovirus (in 20 μl of saline) were injected intravenously via the tail vein of the animals on Days 0, 6, 12, and 18. […] Cisplatin was injected into the tail vein on Days 10, 16 and 22 at a dose of 2.5 mg per kilogram of body weight. The tumors were measured daily from Day 0 to assess growth rate of the tumors.

Compound: N.N.[Cl][Pt][Cl] [cisplatin]
- effect on growth rate of the tumors: essentially no inhibitory effects; also recorded: no effect on the tumor; also recorded: growth rate that was essentially the same as untreated tumors
